Experimental findings from ChEMBL document CHEMBL4622919, “Hypersonins A-D, Polycyclic Polyprenylated Acylphloroglucinols with a 1,2-seco-Homoadamantane Architecture from Hypericum wilsonii” (J Nat Prod, 2020) are described below.

In the test the test system is Splenocyte. Briefly: Immunosuppressive activity in BALB/c mouse splenocytes assessed as reduction in anti-mouse CD3/CD28-induced cell proliferation after 72 hrs by flow cytometric analysis. Format: functional, cell-based. (In general: A flow cytometer gives signals particle by particle.)

Consider `COC(=O)[C@]12C[C@H](C(C)(C)O)C(C)(C)[C@H]1C[C@H]1C[C@@](CC=C(C)C)(C2=O)C(O)=C(C(=O)C(C)C)C1(C)C`, for which the IC50 (commonly the concentration needed to halve the response being measured) was found to be 8.3 µM.
